Here are results for 22 compounds from ChEMBL document CHEMBL5316318, “Structural Modification and Pharmacological Evaluation of Substituted Quinoline-5,8-diones as Potent NSD2 Inhibitors” (J Med Chem, 2023).

Data set [1] addresses T1, Histone-lysine N-methyltransferase NSD2 (Homo sapiens, UniProt O96028).
T1 sequence (O96028 whole entry): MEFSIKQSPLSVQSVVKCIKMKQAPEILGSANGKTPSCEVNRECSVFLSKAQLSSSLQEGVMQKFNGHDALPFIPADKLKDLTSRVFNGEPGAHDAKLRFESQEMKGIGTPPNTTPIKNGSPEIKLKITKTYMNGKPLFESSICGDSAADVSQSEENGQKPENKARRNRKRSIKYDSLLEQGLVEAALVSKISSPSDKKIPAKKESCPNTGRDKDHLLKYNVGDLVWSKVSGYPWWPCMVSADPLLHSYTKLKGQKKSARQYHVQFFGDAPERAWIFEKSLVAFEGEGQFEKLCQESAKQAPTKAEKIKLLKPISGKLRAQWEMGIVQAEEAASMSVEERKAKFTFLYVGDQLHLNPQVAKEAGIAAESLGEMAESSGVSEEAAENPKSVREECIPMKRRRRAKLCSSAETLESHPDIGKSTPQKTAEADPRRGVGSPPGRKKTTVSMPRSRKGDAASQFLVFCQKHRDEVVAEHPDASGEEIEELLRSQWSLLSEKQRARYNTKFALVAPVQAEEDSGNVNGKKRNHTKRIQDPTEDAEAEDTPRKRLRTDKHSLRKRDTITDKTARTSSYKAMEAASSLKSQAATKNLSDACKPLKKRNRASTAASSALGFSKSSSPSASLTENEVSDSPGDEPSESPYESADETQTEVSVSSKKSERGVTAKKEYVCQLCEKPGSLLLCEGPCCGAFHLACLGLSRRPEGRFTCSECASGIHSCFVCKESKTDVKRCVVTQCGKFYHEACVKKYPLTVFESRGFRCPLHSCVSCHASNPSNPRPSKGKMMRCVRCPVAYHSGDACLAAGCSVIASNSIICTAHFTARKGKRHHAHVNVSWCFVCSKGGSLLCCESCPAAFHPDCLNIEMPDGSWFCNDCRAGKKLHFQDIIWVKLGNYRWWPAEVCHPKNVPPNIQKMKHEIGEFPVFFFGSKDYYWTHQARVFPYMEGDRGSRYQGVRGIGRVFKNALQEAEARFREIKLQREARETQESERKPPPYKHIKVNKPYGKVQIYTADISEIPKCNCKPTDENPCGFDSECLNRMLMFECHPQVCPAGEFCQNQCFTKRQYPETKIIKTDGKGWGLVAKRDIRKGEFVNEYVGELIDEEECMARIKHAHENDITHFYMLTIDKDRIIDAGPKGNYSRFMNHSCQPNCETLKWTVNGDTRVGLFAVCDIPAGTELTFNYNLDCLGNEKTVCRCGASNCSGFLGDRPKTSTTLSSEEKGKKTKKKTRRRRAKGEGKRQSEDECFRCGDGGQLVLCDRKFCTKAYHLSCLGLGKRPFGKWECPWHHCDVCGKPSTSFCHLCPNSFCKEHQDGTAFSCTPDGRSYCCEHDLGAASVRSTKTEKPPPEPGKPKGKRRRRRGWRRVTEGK
Description: Inhibition of human NSD2 SET domain-mediated H3K36 methylation using histone H3 as substrate by colorimetric analysis.

The target of data set [2] is T1, Histone-lysine N-methyltransferase NSD2. Nature of the data set: Inhibition of recombinant human NSD2 (941 to 1240 residues) using SAM as substrate incubated for 3 hrs by AlphaLISA assay.
A further data set deals with KMS-11. Description: Antiproliferative activity against human KMS-11 cells assessed as inhibition of cell growth incubated for 6 days by CCK-8 assay. The settings on record: KMS-11, 144 h. It counts as functional, cell-based.
A short description of data set [3]: Apparent permeability coefficient, Papp in MDCK cells. It counts as ADME, cell-based, Canis lupus familiaris. The settings on record: dog.
Data set [4] in a line: Tmax in ICR mouse at 3 mg/kg, po measured for 24 hrs by LC-MS/MS analysis. Format: ADME, organism-based. The settings on record: in vivo.
Data set [5] can be described thus: Cmax in ICR mouse at 3 mg/kg, po measured for 24 hrs by LC-MS/MS analysis. Format: ADME, organism-based. Also noted: dose 3 mg/kg, time 24 hrs, route po. The settings on record: in vivo.
Data set [6] in a line: AUClast in ICR mouse at 3 mg/kg, po measured for 24 hrs by LC-MS/MS analysis. It counts as ADME, organism-based. Also noted: dose 3 mg/kg, time 24 hrs, route po. The settings on record: in vivo.
A short description of data set [7]: AUClast in ICR mouse at 1 mg/kg, iv measured for 24 hrs by LC-MS/MS analysis. The arrangement: dose 1 mg/kg, time 24 hrs, route iv. It counts as ADME, organism-based. The settings on record: in vivo.
Data set [8] in a line: Observed clearance in ICR mouse at 1 mg/kg, iv measured for 24 hrs by LC-MS/MS analysis. It counts as ADME, organism-based. The settings on record: in vivo.
Data set [9] in a line: Half life in ICR mouse at 3 mg/kg, po measured for 24 hrs by LC-MS/MS analysis. The settings on record: in vivo. Format: ADME, organism-based.
A short description of data set [10]: Half life in ICR mouse at 1 mg/kg, iv measured for 24 hrs by LC-MS/MS analysis. Format: ADME, organism-based. The settings on record: in vivo.
A short description of data set [11]: Oral bioavailability in ICR mouse at 3 mg/kg measured for 24 hrs by LC-MS/MS analysis. It counts as ADME, organism-based. The settings on record: in vivo.
Data set [12] addresses T1, Histone-lysine N-methyltransferase NSD2. Nature of the data set: Competitive inhibition of NSD2 (unknown origin) using SAM as substrate.
Data set [13] has the same target. Nature of the data set: Inhibition of human NSD2 SET domain (948 to 1239 residues)-mediated mono-methylation activity assessed as reduction in H3K36me1 level incubated for 1 hr.
For data set [14], the target named is Histone-lysine N-methyltransferase, H3 lysine-36 specific (Homo sapiens, UniProt Q96L73). Nature of the data set: Inhibition of NSD1 (unknown origin).
Sequence of Histone-lysine N-methyltransferase, H3 lysine-36 specific (Q96L73 whole entry): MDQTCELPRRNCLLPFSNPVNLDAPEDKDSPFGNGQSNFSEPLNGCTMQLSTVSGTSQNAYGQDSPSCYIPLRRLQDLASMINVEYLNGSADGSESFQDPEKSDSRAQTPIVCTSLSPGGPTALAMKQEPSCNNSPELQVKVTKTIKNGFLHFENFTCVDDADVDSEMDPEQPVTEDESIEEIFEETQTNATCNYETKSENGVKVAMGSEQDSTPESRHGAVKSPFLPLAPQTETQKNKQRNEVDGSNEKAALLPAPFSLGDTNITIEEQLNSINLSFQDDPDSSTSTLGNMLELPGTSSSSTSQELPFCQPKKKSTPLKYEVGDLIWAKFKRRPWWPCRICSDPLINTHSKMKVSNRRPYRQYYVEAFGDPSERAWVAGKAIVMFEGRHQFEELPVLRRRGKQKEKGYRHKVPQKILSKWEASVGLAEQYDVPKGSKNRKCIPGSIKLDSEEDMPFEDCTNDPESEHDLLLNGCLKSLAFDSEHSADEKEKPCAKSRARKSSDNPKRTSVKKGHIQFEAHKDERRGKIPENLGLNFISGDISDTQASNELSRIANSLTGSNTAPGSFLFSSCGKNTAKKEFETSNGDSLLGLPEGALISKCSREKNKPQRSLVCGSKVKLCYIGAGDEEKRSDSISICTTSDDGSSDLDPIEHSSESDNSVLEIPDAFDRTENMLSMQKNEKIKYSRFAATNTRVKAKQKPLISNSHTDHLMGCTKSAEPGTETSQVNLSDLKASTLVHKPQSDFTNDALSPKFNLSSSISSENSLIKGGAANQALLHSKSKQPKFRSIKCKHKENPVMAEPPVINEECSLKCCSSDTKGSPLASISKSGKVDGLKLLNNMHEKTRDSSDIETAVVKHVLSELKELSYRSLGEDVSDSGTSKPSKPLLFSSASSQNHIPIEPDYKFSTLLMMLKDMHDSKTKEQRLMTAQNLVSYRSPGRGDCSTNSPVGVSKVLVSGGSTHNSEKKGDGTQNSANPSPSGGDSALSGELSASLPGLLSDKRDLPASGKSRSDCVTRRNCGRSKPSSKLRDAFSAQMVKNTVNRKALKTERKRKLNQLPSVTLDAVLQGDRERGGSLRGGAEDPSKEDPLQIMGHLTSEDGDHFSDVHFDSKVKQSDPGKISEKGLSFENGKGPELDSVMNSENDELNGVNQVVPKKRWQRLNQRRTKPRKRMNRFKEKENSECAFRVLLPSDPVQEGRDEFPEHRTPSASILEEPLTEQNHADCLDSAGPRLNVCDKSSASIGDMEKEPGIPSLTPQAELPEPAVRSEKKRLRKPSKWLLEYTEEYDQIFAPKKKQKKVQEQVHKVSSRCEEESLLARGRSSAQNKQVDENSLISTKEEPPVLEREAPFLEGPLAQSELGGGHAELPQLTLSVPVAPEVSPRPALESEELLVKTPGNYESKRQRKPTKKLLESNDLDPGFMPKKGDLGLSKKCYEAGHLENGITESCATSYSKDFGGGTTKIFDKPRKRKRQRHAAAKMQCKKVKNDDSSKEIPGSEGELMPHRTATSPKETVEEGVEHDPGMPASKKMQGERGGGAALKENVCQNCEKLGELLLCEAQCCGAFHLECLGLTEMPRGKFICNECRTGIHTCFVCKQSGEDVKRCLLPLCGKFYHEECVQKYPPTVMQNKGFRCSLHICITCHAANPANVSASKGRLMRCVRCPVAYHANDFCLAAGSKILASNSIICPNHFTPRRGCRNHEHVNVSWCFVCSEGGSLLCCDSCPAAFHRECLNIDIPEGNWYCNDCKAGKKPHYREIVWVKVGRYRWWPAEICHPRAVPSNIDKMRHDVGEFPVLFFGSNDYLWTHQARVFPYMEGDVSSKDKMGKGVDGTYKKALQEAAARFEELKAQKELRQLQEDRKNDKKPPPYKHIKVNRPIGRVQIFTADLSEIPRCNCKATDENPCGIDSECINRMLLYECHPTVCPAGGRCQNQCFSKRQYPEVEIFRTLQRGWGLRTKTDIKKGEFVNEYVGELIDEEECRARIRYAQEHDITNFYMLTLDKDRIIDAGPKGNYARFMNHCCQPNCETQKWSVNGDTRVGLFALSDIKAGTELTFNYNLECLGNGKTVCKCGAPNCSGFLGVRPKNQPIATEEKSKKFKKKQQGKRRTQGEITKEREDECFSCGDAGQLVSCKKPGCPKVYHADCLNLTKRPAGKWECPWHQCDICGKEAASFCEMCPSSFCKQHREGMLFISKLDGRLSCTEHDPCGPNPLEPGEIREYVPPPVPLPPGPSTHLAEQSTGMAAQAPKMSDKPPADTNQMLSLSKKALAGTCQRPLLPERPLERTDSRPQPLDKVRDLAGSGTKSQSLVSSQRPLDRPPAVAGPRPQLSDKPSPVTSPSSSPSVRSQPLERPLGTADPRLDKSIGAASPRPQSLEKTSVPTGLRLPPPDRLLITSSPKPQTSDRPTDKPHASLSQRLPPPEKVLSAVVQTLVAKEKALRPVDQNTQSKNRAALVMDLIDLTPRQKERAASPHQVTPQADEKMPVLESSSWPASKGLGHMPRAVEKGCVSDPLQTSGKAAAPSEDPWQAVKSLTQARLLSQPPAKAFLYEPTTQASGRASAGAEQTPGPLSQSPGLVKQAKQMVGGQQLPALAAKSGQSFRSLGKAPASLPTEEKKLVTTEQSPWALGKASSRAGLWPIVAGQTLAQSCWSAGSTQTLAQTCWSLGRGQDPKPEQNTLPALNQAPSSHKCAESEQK
Data set [15] addresses Histone-lysine N-methyltransferase NSD3 (Homo sapiens, UniProt Q9BZ95). Nature of the data set: Inhibition of NSD3 (unknown origin).
For data set [16], the target named is T1, Histone-lysine N-methyltransferase NSD2. Nature of the data set: Inhibition of N-terminal polyhistidine tagged human recombinant NSD2 SET domain (934 to 1241 residues) expressed in Escherichia coli using SAM as substrate preincubated for 30 mins followed by substrate addition and measured after 15 mins by MTase-Glo assay.

Sequence of Histone-lysine N-methyltransferase NSD3 (Q9BZ95 whole entry, the tested form may be a part): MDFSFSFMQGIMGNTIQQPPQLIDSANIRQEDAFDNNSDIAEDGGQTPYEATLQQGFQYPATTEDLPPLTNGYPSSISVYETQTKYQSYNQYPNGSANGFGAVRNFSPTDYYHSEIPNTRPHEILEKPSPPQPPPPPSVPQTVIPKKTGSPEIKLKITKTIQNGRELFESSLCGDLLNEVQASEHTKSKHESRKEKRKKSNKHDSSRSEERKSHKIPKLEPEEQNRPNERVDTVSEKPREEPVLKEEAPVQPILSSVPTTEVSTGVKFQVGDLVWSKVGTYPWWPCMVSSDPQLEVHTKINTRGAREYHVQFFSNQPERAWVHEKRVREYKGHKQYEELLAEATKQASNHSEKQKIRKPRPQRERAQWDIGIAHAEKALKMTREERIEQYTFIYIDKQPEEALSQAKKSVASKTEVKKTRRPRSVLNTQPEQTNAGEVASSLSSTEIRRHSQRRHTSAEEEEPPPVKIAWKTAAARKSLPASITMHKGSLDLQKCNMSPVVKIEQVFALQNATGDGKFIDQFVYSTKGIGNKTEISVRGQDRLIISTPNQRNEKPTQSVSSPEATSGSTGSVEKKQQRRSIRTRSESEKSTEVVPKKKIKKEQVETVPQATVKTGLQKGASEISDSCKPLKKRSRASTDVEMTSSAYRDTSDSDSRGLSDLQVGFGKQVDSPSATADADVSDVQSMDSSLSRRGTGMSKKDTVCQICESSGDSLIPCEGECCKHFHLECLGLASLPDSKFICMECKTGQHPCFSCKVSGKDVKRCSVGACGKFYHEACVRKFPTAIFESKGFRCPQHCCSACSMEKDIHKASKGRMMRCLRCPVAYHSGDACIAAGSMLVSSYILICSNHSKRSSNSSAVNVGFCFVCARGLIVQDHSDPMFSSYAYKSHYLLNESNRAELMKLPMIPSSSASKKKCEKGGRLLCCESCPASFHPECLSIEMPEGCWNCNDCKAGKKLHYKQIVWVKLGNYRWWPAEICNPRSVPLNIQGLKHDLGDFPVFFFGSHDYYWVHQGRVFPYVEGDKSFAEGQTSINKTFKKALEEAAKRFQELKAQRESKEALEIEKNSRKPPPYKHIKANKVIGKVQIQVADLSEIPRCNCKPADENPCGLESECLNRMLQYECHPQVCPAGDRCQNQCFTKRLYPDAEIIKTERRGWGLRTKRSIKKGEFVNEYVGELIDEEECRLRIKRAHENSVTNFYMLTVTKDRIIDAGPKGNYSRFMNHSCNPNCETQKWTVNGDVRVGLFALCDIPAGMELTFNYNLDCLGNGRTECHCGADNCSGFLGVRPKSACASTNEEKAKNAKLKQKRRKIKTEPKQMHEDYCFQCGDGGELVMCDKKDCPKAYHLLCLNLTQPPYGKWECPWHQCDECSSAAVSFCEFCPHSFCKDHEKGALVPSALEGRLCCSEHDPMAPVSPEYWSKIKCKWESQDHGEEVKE

Regarding `O=C1O[C@@H](C(=O)N2CCN(Cc3nc4sc5c(c4c(=O)[nH]3)CCCC5)CC2)Cc2ccccc21`, in data set [1], the IC50 turned out to be 132000 nM.
`O=C1C(NCCc2c[nH]c3ccccc23)=C(Cl)C(=O)c2ncccc21`: the IC50 in data set [2] is 2290 nM.
Still for that read-out and setting: under `O=C1C(NC2CCc3ccccc32)=C(Cl)C(=O)c2ncccc21` (configuration not stated) stands 450 nM.
Regarding `CC(F)(F)C(=O)NC12CC(NC3=C(Cl)C(=O)c4ncccc4C3=O)(C1)C2`, the IC50 in [2] was 330 nM; in the data set on KMS-11 it was 350 nM. In data set [3], the Papp is 49.4 ×10⁻⁶ cm/s. Moreover, the Tmax in data set [4] worked out at 25.2 min. This compound also yielded a Cmax in data set [5] of 707 ng/mL. Moreover, the AUC(0-t) at 24 h in [6] came to 758 ng·h/mL; in data set [7], 476 ng·h/mL. In addition, the clearance in [8] is 33.4 mL/min/kg. The half-life in data set [9] is 307 min; in [10] it was 115 min. Besides, in data set [11], the bioavailability is 53.1%.
In the case of `CC(C)(O)[C@H](F)CNC1=C(Cl)C(=O)c2ccc(N3CCC(F)(F)C3)nc2C1=O`, the IC50 in [2] came out at 930 nM.
For `O=C1C(NCCC2(O)CCN(C(=O)C3CC3(F)F)CC2)=C(Cl)C(=O)c2ncccc21` (configuration not stated), the IC50 in [2] was found to be 1280 nM.
Same read-out and setting: under `CC#CC(=O)NC1CN(C2=C(Cl)C(=O)c3ncccc3C2=O)C1` stands 590 nM.
With `C[C@@](O)(C(=O)NC12CC(NC3=C(Cl)C(=O)c4cccnc4C3=O)(C1)C2)C(F)(F)F`, the IC50 in [2] came to 420 nM.
Still for that read-out and setting: in the case of `C[C@@](O)(C(=O)N1CCC(O)(CCNC2=C(Cl)C(=O)c3ncccc3C2=O)CC1)C(F)(F)F` it was 990 nM.
On the same count and under the same terms, under `CC#CC(=O)NC1CN(C2=C(Cl)C(=O)c3cccnc3C2=O)C1` stands 310 nM; under `CC(C)(O)[C@H](F)CNC1=C(Cl)C(=O)c2ncccc2C1=O`, 1310 nM.
Regarding `O=C1C(NC23CC(NC(=O)C4CC4(F)F)(C2)C3)=C(Cl)C(=O)c2ncccc21` (configuration not stated), in [2], the IC50 is 1460 nM.
Still for that read-out and setting: under `CC(F)(F)C(=O)NCCC1CCN(C2=C(Cl)C(=O)c3cccnc3C2=O)CC1` stands 2340 nM.
In turn, `NNc1nc2ccccc2nc1S` came in with an IC50 in data set [12] of less than 3000 nM.
Consider `CC(C)(O)[C@H](F)CNC1=C(Cl)C(=O)c2cccnc2C1=O`, for which the IC50 in data set [2] was found to be 300 nM; with KMS-11 it was 1680 nM. Moreover, the Papp in [3] came out at 30.8 ×10⁻⁶ cm/s.
As for `CC(C)(O)[C@H](F)CNC1=C(Cl)C(=O)c2ccc(N3CCCC3)nc2C1=O`, the IC50 in data set [2] was found to be 360 nM.
Regarding `COc1cc2nc(N3CCCN(C)CC3)nc(NC3CCN(Cc4ccccc4)CC3)c2cc1OC`, in data set [13], the 50% inhibitory concentration (IC50) was 41000 nM.
Regarding `CCN(c1cc(-c2ccc(CN3CCOCC3)cc2)cc(C(=O)NCc2c(C)cc(C)[nH]c2=O)c1C)C1CCOCC1` [TAZEMETOSTAT], the IC50 in the data set on KMS-11 is more than 20000 nM.
Turning to `C[C@@](O)(C(=O)N1CCC(O)(CCNC2=C(Cl)C(=O)c3cccnc3C2=O)CC1)C(F)(F)F`, the IC50 in data set [2] is 240 nM; in the data set on KMS-11 it was 8100 nM. Moreover, the Papp in data set [3] is 17.8 ×10⁻⁶ cm/s.
On the same counts, the results for `O=C1C(Cl)=C(NC2CCc3ccccc32)C(=O)c2ncccc21` (configuration not stated) are 210 nM, 2520 nM and 28.8 ×10⁻⁶ cm/s.
With `CC(F)(F)C(=O)NCCC1CN(C2=C(Cl)C(=O)c3cccnc3C2=O)C1`, in [2], the IC50 stood at 380 nM.
Turning to `O=C1C(Cl)=C(NCCN2CCOCC2)C(=O)c2ncccc21`, the IC50 in data set [2] is 230 nM; in the data set with KMS-11 it was 1430 nM; in data set [14], 150 nM; in data set [15], 340 nM; in [16], 170 nM. For the same compound, in data set [3], the apparent permeability (Papp) stood at 31.2 ×10⁻⁶ cm/s. Moreover, the time to peak (Tmax) in data set [4] came to 19.8 min. The peak level in data set [5] (Cmax) was 21.1 ng/mL. Besides, the AUC(0-t) at 24 h in [6] worked out at 14.5 ng·h/mL. Moreover, in data set [9], the half-life is 34.2 min.
